From patent US20240358829A1, “Lymphocyte Population and Methods for Producing Same” (AVM Biotechnology, LLC, priority 2021, published 2024)
Several values for one entry are separate records, joined by “and”; a condition that tells them apart may be missing. Equal values may be shown once.

Test system: CD56+γδTCR+iTCR+ cells
Assay: AVM0703 R/R NHL clinical trial, whole blood flow cytometry
Assay type: in vivo, human
Description: FIG. 15. 101-001 size (FSC) and complexity (SSC) scattergram of AVM_NKT cells. […] Blood was stained with panel antibodies based for 15 minutes in the dark at Room Temperature. RBC lysis was performed by addition of 1 mL of 1×BD FACS Lysing Solution (BD Bioscience), diluted with MilliQ water, for 10 minutes in the dark at Room Temperature. Samples were washed with 2 mL 1×DPBS CMF (Gibco) and resuspended in 300 μL of 1×DPBS CMF before 5 μL of 7AAD (Biolegend) was added to each sample for live/dead cell determination and incubated for 5 minutes in the dark at Room Temperature. 250 μL of sample were taken up for acquisition on Macsquant 16 Flow Cytometer (Miltenyi, Serial #40150). Live white blood cells were gated for CD56+ cells co-expressing gamma delta TCR and the invariant TCR and labelled red in the forward versus side scattergram. Red-labelled cells fall within the forward versus side scattergrams where large granular cells such as neutrophils and large granular lymphocytes are known to fall.
For characterisation of the induced/mobilized population of NKT-like cells (AVM-NKT) in humans, whole blood from human subjects was drawn in K2 EDTA Vacutainer tube (367862, BD Biosciences, NJ) and shipped to AVM Biotechnology at room temperature. 100 μl of whole blood was stained with the following antibodies: CD45 AF700 (2D1), CD16 APC (3G8), INKT PECy7 (6B11), CD8 PE (SK1), CD14 FITC (M5E2), CD56 BV650 (5.1H11), γδTCR BV510 (B1), CD19 BV421 (HIB19), NKp44 APC (P44-8) (all from Biolegend, San Diego, CA) and CD3 APCVio770 (BW264/56), (Miltenyi Biotec, San Jose, CA), 7-AAD, (Biolegend, San Diego CA) was included to distinguish the live and dead cells.

[1] = patient 108-001, 1st 9 mg/kg infusion, 1 hour
[2] = patient 108-001, 1st 9 mg/kg infusion, Day 3
[3] = patient 108-001, 1st 9 mg/kg infusion, Day 14
[4] = patient 108-001, 2nd 9 mg/kg infusion, 1 hour
[5] = patient 108-001, 2nd 9 mg/kg infusion, Day 3
[6] = patient 108-001, 2nd 9 mg/kg infusion, Day 14
[7] = patient 108-002, 18 mg/kg, 1 hour post-infusion
[8] = patient 108-002, 18 mg/kg, Day 3
[9] = patient 108-002, 18 mg/kg, Day 14
[10] = patient 108-003, 12 mg/kg, 1 hour post-infusion
[11] = patient 108-003, 12 mg/kg, Day 3
[12] = patient 108-003, 12 mg/kg, Day 14

## C[C@@H]1C[C@H]2[C@@H]3CCC4=CC(=O)C=C[C@]4(C)[C@@]3(F)[C@@H](O)C[C@]2(C)[C@@]1(O)C(=O)COP(=O)(O)O [AVM0703, dexamethasone sodium phosphate]
[1]
  CD45 (as % of CD56+ γδTCR+ iTCR+ cells): 96%
  CD56+ γδTCR+ iTCR+ % of total WBCs: 0.72%
  CD56+ γδTCR+ iTCR+ cells/uL: 112 cells/uL
[2]
  CD3 (as % of CD56+ γδTCR+ iTCR+ cells): 24%
  CD8hi (as % of CD56+ γδTCR+ iTCR+ cells): 2%
  CD8med (as % of CD56+ γδTCR+ iTCR+ cells): 16%
  CD14+ (as % of CD56+ γδTCR+ iTCR+ cells): 50%
  CD16 (as % of CD56+ γδTCR+ iTCR+ cells): 80%
  CD19+ (as % of CD56+ γδTCR+ iTCR+ cells): 24%
  CD45 (as % of CD56+ γδTCR+ iTCR+ cells): 98%
  CD56+ γδTCR+ iTCR+ % of total WBCs: 0.22%
  CD56+ γδTCR+ iTCR+ cells/uL: 36 cells/uL and 36.0 cells/uL
[3]
  CD56+ γδTCR+ iTCR+ % of total WBCs: 0.06%
  CD56+ γδTCR+ iTCR+ cells/uL: 3 cells/uL
[4]
  CD3 (as % of CD56+ γδTCR+ iTCR+ cells): 23%
  CD8hi (as % of CD56+ γδTCR+ iTCR+ cells): 2.2%
  CD8med (as % of CD56+ γδTCR+ iTCR+ cells): 4.4%
  CD14+ (as % of CD56+ γδTCR+ iTCR+ cells): 81%
  CD16 (as % of CD56+ γδTCR+ iTCR+ cells): 89%
  CD19+ (as % of CD56+ γδTCR+ iTCR+ cells): 26%
  CD45 (as % of CD56+ γδTCR+ iTCR+ cells): 13%
  CD56+ γδTCR+ iTCR+ % of total WBCs: 0.84%
  CD56+ γδTCR+ iTCR+ cells/uL: 26 cells/uL
[5]
  CD3 (as % of CD56+ γδTCR+ iTCR+ cells): 49%
  CD8hi (as % of CD56+ γδTCR+ iTCR+ cells): 1%
  CD8med (as % of CD56+ γδTCR+ iTCR+ cells): 55%
  CD14+ (as % of CD56+ γδTCR+ iTCR+ cells): 35%
  CD16 (as % of CD56+ γδTCR+ iTCR+ cells): 58%
  CD19+ (as % of CD56+ γδTCR+ iTCR+ cells): 17%
  CD45 (as % of CD56+ γδTCR+ iTCR+ cells): 11%
  CD56+ γδTCR+ iTCR+ % of total WBCs: 0.19%
  CD56+ γδTCR+ iTCR+ cells/uL: 10.2 cells/uL
[6]
  CD3 (as % of CD56+ γδTCR+ iTCR+ cells): 22%
  CD8hi (as % of CD56+ γδTCR+ iTCR+ cells): 4%
  CD8med (as % of CD56+ γδTCR+ iTCR+ cells): 20%
  CD14+ (as % of CD56+ γδTCR+ iTCR+ cells): 76%
  CD16 (as % of CD56+ γδTCR+ iTCR+ cells): 82%
  CD19+ (as % of CD56+ γδTCR+ iTCR+ cells): 28%
  CD45 (as % of CD56+ γδTCR+ iTCR+ cells): 84%
  CD56+ γδTCR+ iTCR+ % of total WBCs: 0.43%
  CD56+ γδTCR+ iTCR+ cells/uL: 20 cells/uL
Patient 108-001, after the third 9 mg/kg infusion
  AVM_NKT CD56+γδTCR+iTCR+ cells in the blood: not evident in the blood
Patient 108-002, 18 mg/kg
  CD56+gdTCR+ inv TCR+ cells induced: YES
[7]
  CD3 (as % of CD56+ γδTCR+ iTCR+ cells): 83.2%
  CD8hi (as % of CD56+ γδTCR+ iTCR+ cells): 88%
  CD8med (as % of CD56+ γδTCR+ iTCR+ cells): 12.3%
  CD14+ (as % of CD56+ γδTCR+ iTCR+ cells): 79%
  CD16 (as % of CD56+ γδTCR+ iTCR+ cells): 87%
  CD19+ (as % of CD56+ γδTCR+ iTCR+ cells): 98%
  CD45 (as % of CD56+ γδTCR+ iTCR+ cells): 100%
  CD56+ γδTCR+ iTCR+ cells/uL: 49.5 cells/uL
[8]
  CD56+ γδTCR+ iTCR+ % of total WBCs: 0.04%
  CD56+ γδTCR+ iTCR+ cells/uL: 2.3 cells/uL
[9]
  CD3 (as % of CD56+ γδTCR+ iTCR+ cells): 72%
  CD8hi (as % of CD56+ γδTCR+ iTCR+ cells): 73%
  CD8med (as % of CD56+ γδTCR+ iTCR+ cells): 16.5%
  CD14+ (as % of CD56+ γδTCR+ iTCR+ cells): 80%
  CD16 (as % of CD56+ γδTCR+ iTCR+ cells): 41.2%
  CD19+ (as % of CD56+ γδTCR+ iTCR+ cells): 80%
  CD45 (as % of CD56+ γδTCR+ iTCR+ cells): 84%
  CD56+ γδTCR+ iTCR+ % of total WBCs: 0.25%
  CD56+ γδTCR+ iTCR+ cells/uL: 9.7 cells/uL
Patient 108-003, 12 mg/kg
  CD56+gdTCR+ inv TCR+ cells induced: YES
[10]
  CD3 (as % of CD56+ γδTCR+ iTCR+ cells): 14%
  CD8hi (as % of CD56+ γδTCR+ iTCR+ cells): 1.7%
  CD8med (as % of CD56+ γδTCR+ iTCR+ cells): 9%
  CD14+ (as % of CD56+ γδTCR+ iTCR+ cells): 43%
  CD16 (as % of CD56+ γδTCR+ iTCR+ cells): 85%
  CD19+ (as % of CD56+ γδTCR+ iTCR+ cells): 40%
  CD45 (as % of CD56+ γδTCR+ iTCR+ cells): 95%
  CD56+ γδTCR+ iTCR+ % of total WBCs: 0.4%
  CD56+ γδTCR+ iTCR+ cells/uL: 31.8 cells/uL
[11]
  CD3 (as % of CD56+ γδTCR+ iTCR+ cells): 80%
  CD8hi (as % of CD56+ γδTCR+ iTCR+ cells): 12.6%
  CD8med (as % of CD56+ γδTCR+ iTCR+ cells): 45%
  CD14+ (as % of CD56+ γδTCR+ iTCR+ cells): 68%
  CD16 (as % of CD56+ γδTCR+ iTCR+ cells): 75%
  CD19+ (as % of CD56+ γδTCR+ iTCR+ cells): 11.5%
  CD45 (as % of CD56+ γδTCR+ iTCR+ cells): 67%
  CD56+ γδTCR+ iTCR+ % of total WBCs: 0.6%
  CD56+ γδTCR+ iTCR+ cells/uL: 58.4 cells/uL
[12]
  CD3 (as % of CD56+ γδTCR+ iTCR+ cells): 90%
  CD8hi (as % of CD56+ γδTCR+ iTCR+ cells): 8%
  CD8med (as % of CD56+ γδTCR+ iTCR+ cells): 84%
  CD14+ (as % of CD56+ γδTCR+ iTCR+ cells): 87%
  CD16 (as % of CD56+ γδTCR+ iTCR+ cells): 89%
  CD19+ (as % of CD56+ γδTCR+ iTCR+ cells): 12.4%
  CD45 (as % of CD56+ γδTCR+ iTCR+ cells): 94%
  CD56+ γδTCR+ iTCR+ % of total WBCs: 0.83%
  CD56+ γδTCR+ iTCR+ cells/uL: 94 cells/uL
Patient 108-004, 12 mg/kg, one hour, 3 days or 14 days after infusion (pre-infusion 0.09%, 4.6 cells/uL)
  CD56+γδTCR+invTCR+ cells in blood: no increase
